In patent US11492343B2, “Polymorph of flibanserin and preparation method thereof and use of same” (priority 2016, dated 2022):

Experiments:
[1] = Solubility of crystal forms in pH 6.8 buffer solution (HPLC of filtrate); format: physicochemical; conditions: for Solubility in pH 6.8 buffer: 20 mg in 1 mL pH 6.8 buffer, suspension equilibrated for 1 hour, 0.45 μm filter, HPLC; for Solubility compared with crystal form A: in physiological solution
Method: The solubility of several new crystal forms prepared in the above examples and Form A (prepared according to the method of WO2003/014079) in a pH buffer solution (pH 6.8) was determined. Precisely weigh 20 mg Form I, Form II, Form V and Form A in a 2-mL glass vial, add 1 mL of pH 6.8 buffer, seal with cap, and mix on a rotating mixer. After the suspension was equilibrated for 1 hour, the mixture was filtered through a 0.45 μm needle filter, and the concentration of flibanserin in the filtrate was analyzed by HPLC to obtain the solubility of different crystal forms.

[2] = prior art; cited from earlier work
[3] = prior art WO2003/014079; cited from earlier work

Row | Solubility in pH 6.8 buffer [1] [mg/mL] | Solubility compared with crystal form A [1] | SMILES | Solubility in water [2] | Stability under pressure and mechanical stress conditions [3]
1 | 0.010 | greater | O=c1[nH]c2ccccc2n1CCN1CCN(c2cccc(C(F)(F)F)c2)CC1 [Form V] | – | –
2 | 0.008 | greater | O=c1[nH]c2ccccc2n1CCN1CCN(c2cccc(C(F)(F)F)c2)CC1 [Form II] | – | –
3 | 0.004 | greater | O=c1[nH]c2ccccc2n1CCN1CCN(c2cccc(C(F)(F)F)c2)CC1 [Form I] | – | –
4 | – | – | O=c1[nH]c2ccccc2n1CCN1CCN(c2cccc(C(F)(F)F)c2)CC1 [Form A] | very small | –
5 | – | – | O=c1[nH]c2ccccc2n1CCN1CCN(c2cccc(C(F)(F)F)c2)CC1 [Form B] | – | low stability
